Patent US10294234B2, “HIV inhibitor compounds” (priority 2017, dated 2019)
pEC50: −log10 of the molar value.

Tested on: HIV-1 (IIIB) in MT-4 cells
Assay: MT-4 HIV assay
Format: cell-based
Conditions: Human immunodeficiency virus 1, MT4, 120 h; HIV-1 (IIIB), MT-4 cells, 5 days, Cell Titer Glo; read-out: EC50
Procedure, shortened: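 MT-4 cells infected with HIV-1 IIIB (1:250 stock dilution) were incubated with 1:3 serially diluted compounds in RPMI with 10% FBS for 5 days at 37 °C. Cell Titer Glo luminescence was the readout. Plates included mock-infected wells, no-drug wells and 5 uM AZT controls.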

Compound | pEC50
COC(=O)N[C@H](C(=O)N[C@@H](Cc1ccc(C#Cc2ccc(N3CC4CCC(C3)N4C3COC3)nc2C)cc1)[C@@H](O)CN(Cc1c(F)cc(-c2ccn(C(F)F)n2)cc1F)NC(=O)[C@@H](NC(=O)OC)C(C)(C)C(F)(F)F)C(C)(C)C(F)(F)F [Example 152, Methyl ((5S,8S,9S,14S)-11-(4-(1-(difluoromethyl)-1H-pyrazol-3-yl)-2,6-difluorobenzyl)-16,16,16-trifluoro-9-hydroxy-15,15-dimethyl-8-(4-((2-methyl-6-(8-(oxetan-3-yl)-3,8-diazabicyclo[3.2.1]octan-3-yl)pyridin-3-yl)ethynyl)benzyl)-3,6,13-trioxo-5-(1,1,1-trifluoro-2-methylpropan-2-yl)-2-oxa-4,7,11,12-tetraazahexadecan-14-yl)carbamate] | 8.21
COC(=O)N[C@H](C(=O)N[C@@H](Cc1ccc(C#Cc2ccc(N3CC4CCC(C3)N4C3COC3)nc2C)cc1)[C@@H](O)CN(Cc1c(F)cc(-c2cnn(C(F)F)c2)cc1F)NC(=O)[C@@H](NC(=O)OC)C(C)(C)C(F)(F)F)C(C)(C)C(F)(F)F [Example 155, Methyl ((5S,8S,9S,14S)-11-(4-(1-(difluoromethyl)-1H-pyrazol-4-yl)-2,6-difluorobenzyl)-16,16,16-trifluoro-9-hydroxy-15,15-dimethyl-8-(4-((2-methyl-6-(8-(oxetan-3-yl)-3,8-diazabicyclo[3.2.1]octan-3-yl)pyridin-3-yl)ethynyl)benzyl)-3,6,13-trioxo-5-(1,1,1-trifluoro-2-methylpropan-2-yl)-2-oxa-4,7,11,12-tetraazahexadecan-14-yl)carbamate] | 8.05
CC(C)([C@H](NC(=O)OC1CC1)C(=O)N[C@@H](Cc1ccc(C#Cc2ccc(N3CC4CCC(C3)N4C3COC3)nc2)cc1)[C@@H](O)CN(Cc1c(F)cc(-c2ccn(C(F)F)n2)cc1F)NC(=O)[C@@H](NC(=O)OC1CC1)C(C)(C)C(F)(F)F)C(F)(F)F [Example 156, Cyclopropyl ((2S)-1-(2-((2S,3S)-3-((S)-2-((cyclopropoxycarbonyl)amino)-4,4,4-trifluoro-3,3-dimethylbutanamido)-2-hydroxy-4-(4-((6-(8-(oxetan-3-yl)-3,8-diazabicyclo[3.2.1]octan-3-yl)pyridin-3-yl)ethynyl)phenyl)butyl)-2-(4-(1-(difluoromethyl)-1H-pyrazol-3-yl)-2,6-difluorobenzyl)hydrazinyl)-4,4,4-trifluoro-3,3-dimethyl-1-oxobutan-2-yl)carbamate] | 7.77
COC(=O)N[C@H](C(=O)N[C@@H](Cc1ccc(C#Cc2ccc(N3CC4CCC(C3)N4C3COC3)nc2)cc1)[C@@H](O)CN(Cc1ccc(-c2cnn(C(F)F)c2)cc1F)NC(=O)[C@@H](NC(=O)OC)C(C)(C)C(F)(F)F)C(C)(C)C(F)(F)F [Example 157, Methyl ((5S,8S,9S,14S)-11-(4-(1-(difluoromethyl)-1H-pyrazol-4-yl)-2-fluorobenzyl)-16,16,16-trifluoro-9-hydroxy-15,15-dimethyl-8-(4-((6-(8-(oxetan-3-yl)-3,8-diazabicyclo[3.2.1]octan-3-yl)pyridin-3-yl)ethynyl)benzyl)-3,6,13-trioxo-5-(1,1,1-trifluoro-2-methylpropan-2-yl)-2-oxa-4,7,11,12-tetraazahexadecan-14-yl)carbamate] | 8.34
COC(=O)N[C@H](C(=O)N[C@@H](Cc1ccc(C#Cc2cnc(N3CC4CCC(C3)N4C3COC3)nc2)cc1)[C@@H](O)CN(Cc1c(F)cc(-c2ccn(C(F)F)n2)cc1F)NC(=O)[C@@H](NC(=O)OC)C12CC(C(F)(F)F)(C1)C2)C12CC(C(F)(F)F)(C1)C2 [Example 160, Methyl ((5S,8S,9S,14S)-11-(4-(1-(difluoromethyl)-1H-pyrazol-3-yl)-2,6-difluorobenzyl)-9-hydroxy-8-(4-((2-(8-(oxetan-3-yl)-3,8-diazabicyclo[3.2.1]octan-3-yl)pyrimidin-5-yl)ethynyl)benzyl)-3,6,13-trioxo-5,14-bis(3-(trifluoromethyl)bicyclo[1.1.1]pentan-1-yl)-2-oxa-4,7,11,12-tetraazatetradecan-14-yl)carbamate] | 5.24
COC(=O)N[C@H](C(=O)N[C@@H](Cc1ccc(C#Cc2ccc(N3CC4CCC(C3)N4)nc2)cc1)[C@@H](O)CN(Cc1c(F)cc(-c2cnn(C(F)F)c2)cc1F)NC(=O)[C@@H](NC(=O)OC)C(C)(C)C(F)(F)F)C(C)(C)C(F)(F)F [Example 162, Methyl ((5S,8S,9S,14S)-8-(4-((6-(3,8-diazabicyclo[3.2.1]octan-3-yl)pyridin-3-yl)ethynyl)benzyl)-11-(4-(1-(difluoromethyl)-1H-pyrazol-4-yl)-2,6-difluorobenzyl)-16,16,16-trifluoro-9-hydroxy-15,15-dimethyl-3,6,13-trioxo-5-(1,1,1-trifluoro-2-methylpropan-2-yl)-2-oxa-4,7,11,12-tetraazahexadecan-14-yl)carbamate] | 7.91
COC(=O)N[C@H](C(=O)N[C@@H](Cc1ccc(C#Cc2ccc(N3C[C@H]4CN(C)C[C@H]4C3)nc2)cc1)[C@@H](O)CN(Cc1c(F)cc(-c2ccn(C(F)F)n2)cc1F)NC(=O)[C@@H](NC(=O)OC)C(C)(C)C(F)(F)F)C(C)(C)C(F)(F)F [Example 164, Methyl ((5S,8S,9S,14S)-11-(4-(1-(difluoromethyl)-1H-pyrazol-3-yl)-2,6-difluorobenzyl)-16,16,16-trifluoro-9-hydroxy-15,15-dimethyl-8-(4-((6-((3 aR,6aS)-5-methylhexahydropyrrolo[3,4-c]pyrrol-2(1H)-yl)pyridin-3-yl)ethynyl)benzyl)-3,6,13-trioxo-5-(1,1,1-trifluoro-2-methylpropan-2-yl)-2-oxa-4,7,11,12-tetraazahexadecan-14-yl)carbamate] | 8.10
COC(=O)N[C@H](C(=O)N[C@@H](Cc1ccc(C#Cc2ccc(N3CC4CCC(C3)N4C(C)C)nc2)cc1)[C@@H](O)CN(Cc1c(F)cc(-c2cnn(C(F)F)c2)cc1F)NC(=O)[C@@H](NC(=O)OC)C(C)(C)C(F)(F)F)C(C)(C)C(F)(F)F [Example 166, Methyl ((5S,8S,9S,14S)-11-(4-(1-(difluoromethyl)-1H-pyrazol-4-yl)-2,6-difluorobenzyl)-16,16,16-trifluoro-9-hydroxy-8-(4-((6-(8-isopropyl-3,8-diazabicyclo[3.2.1]octan-3-yl)pyridin-3-yl)ethynyl)benzyl)-15,15-dimethyl-3,6,13-trioxo-5-(1,1,1-trifluoro-2-methylpropan-2-yl)-2-oxa-4,7,11,12-tetraazahexadecan-14-yl)carbamate] | 8.15
CC(C)([C@H](NC(=O)OC1COC1)C(=O)N[C@@H](Cc1ccc(C#Cc2ccc(N3CC4CCC(C3)N4C3COC3)nc2)cc1)[C@@H](O)CN(Cc1c(F)cc(-c2ccn(C(F)F)n2)cc1F)NC(=O)[C@@H](NC(=O)OC1COC1)C(C)(C)C(F)(F)F)C(F)(F)F [Example 169, oxetan-3-yl ((2S)-1-(2-(4-(1-(difluoromethyl)-1H-pyrazol-3-yl)-2,6-difluorobenzyl)-2-((2S,3S)-2-hydroxy-4-(4-((6-(8-(oxetan-3-yl)-3,8-diazabicyclo[3.2.1]octan-3-yl)pyridin-3-yl)ethynyl)phenyl)-3-((S)-4,4,4-trifluoro-33-dimethyl-2-(((oxetan-3-yloxy)carbonyl)amino)butanamido)butyl)hydrazinyl)-4,4,4-trifluoro-3,3-dimethyl-1-oxobutan-2-yl)carbamate] | 8.17
COC(=O)N[C@H](C(=O)N[C@@H](Cc1ccc(C#Cc2cnc(N3CC4CCC(C3)N4)nc2)cc1)[C@@H](O)CN(Cc1c(F)cc(-c2ccn(C(F)F)n2)cc1F)NC(=O)[C@@H](NC(=O)OC)C(C)(C)C(F)(F)F)C(C)(C)C(F)(F)F [Example 172, Methyl ((5S,8S,9S,14S)-8-(4-((2-(3,8-diazabicyclo[3.2.1]octan-3-yl)pyrimidin-5-yl)ethynyl)benzyl)-11-(4-(1-(difluoromethyl)-1H-pyrazol-3-yl)-2,6-difluorobenzyl)-16,16,16-trifluoro-9-hydroxy-15,15-dimethyl-3,6,13-trioxo-5-(1,1,1-trifluoro-2-methylpropan-2-yl)-2-oxa-4,7,11,12-tetraazahexadecan-14-yl)carbamate] | 8.23
COC(=O)N[C@H](C(=O)N[C@@H](Cc1ccc(C#Cc2ccc(N3CC4CCC(C3)N4C3COC3)cc2)cc1)[C@@H](O)CN(Cc1c(F)cc(-c2ccccn2)cc1F)NC(=O)[C@@H](NC(=O)OC)C(C)(C)C(F)(F)F)C(C)(C)C(F)(F)F [Example 177, Methyl ((5S,8S,9S,14S)-11-(2,6-difluoro-4-(pyridin-2-yl)benzyl)-16,16,16-trifluoro-9-hydroxy-15,15-dimethyl-8-(4-((4-(8-(oxetan-3-yl)-3,8-diazabicyclo [3.2.1]octan-3-yl)phenyl)ethynyl)benzyl)-3,6,13-trioxo-5-(1,1,1-trifluoro-2-methylpropan-2-yl)-2-oxa-4,7,11,12-tetraazahexadecan-14-yl)carbamate] | 8.09
COC(=O)N[C@H](C(=O)N[C@@H](Cc1ccc(C#Cc2ccc(N3CC4CCC(C3)N4C3COC3)cc2)cc1)[C@@H](O)CN(Cc1c(F)cc(-c2ccn(C(F)F)n2)cc1F)NC(=O)[C@@H](NC(=O)OC)C(C)(C)C(F)(F)F)C(C)(C)C(F)(F)F [Example 178, Methyl ((5S,8S,9S,14S)-11-(4-(1-(difluoromethyl)-1H-pyrazol-3-yl)-2,6-difluorobenzyl)-16,16,16-trifluoro-9-hydroxy-15,15-dimethyl-8-(4-((4-(8-(oxetan-3-yl)-3,8-diazabicyclo[3.2.1]octan-3-yl)phenyl)ethynyl)benzyl)-3,6,13-trioxo-5-(1,1,1-trifluoro-2-methylpropan-2-yl)-2-oxa-4,7,11,12-tetraazahexadecan-14-yl)carbamate] | 7.99
